In the test the test system is S. aureus. The experiment in a line: MIC of tobramycin (previously determined). Format: cell-based. To be noted: Staphylococcus aureus.

As for `NC[C@H]1O[C@H](O[C@H]2[C@H](O)[C@@H](O[C@H]3O[C@H](CO)[C@@H](O)[C@H](N)[C@H]3O)[C@H](N)C[C@@H]2N)[C@H](N)C[C@@H]1O` [tobramycin], the MIC (usually the lowest concentration found to suppress growth) was 4 µg/mL.

The record behind these values is patent publication US10207030B2, “Implantable devices for bone or joint defects” (University of Utah Research Foundation, priority 2013, dated 2019).
